The values that follow come from patent US9371265B2, “Compositions and methods related to inhibitors of JAK kinase” (EP PHARMA, INC., priority 2012, dated 2016).

The target of one assay is TIE2 (Homo sapiens, UniProt Q02763). The assay can be described thus: Kinase panel: TIE2. The assay is classed as biochemical. As to conditions: 10 μM EP009. Here is the method:
Achieving JAK3 selectivity remains a significant challenge in the development of new small molecules for the treatment of cancer and immune-derived diseases. As such, the inventors employed cell-based screening assays of small-molecule libraries based upon the chemical scaffold of the established JAK3 inhibitor NC1153 (Stepkowski et al., J Immunol. (2005), 175(7):4236-4246) EP009 (FIG. 2A) was selected as a lead compound due to improved intrinsic stability (>95% purity in various solvents at 37° C. for 24 hours; FIG. 3) and high-degree of JAK3 selectivity. To test JAK3 versus JAK2 specificity of EP009, the IL-2/JAK3-dependent Kit225, and IL-3/JAK2-dependent BaF/3 cell lines were used. Kit225 and BaF/3 cells growing in the presence of IL-2 or IL-3, respectively, were treated with ascending concentrations of EP009 for 12 hours and cellular JAK3 and JAK2 tyrosine phosphorylation levels detected by Western blot analysis (FIGS. 2B and 2C). Following densitometric analysis, EP009 was determined to dose-dependently reduce IL-2-mediated JAK3 tyrosine phosphorylation with a cellular 50% inhibitory concentration (IC50) between 10 and 20 μM (FIG. 2B). […] To globally evaluate specificity, the inhibitory activity of EP009 was measured against a panel of protein kinases distributed throughout the kinome using the scanEDGE profiling service (KINOMEscan). […]

The test system of another assay is STAT3. Nature of the assay: Phospho-STAT3 in SU-DHL-1 cells (Luminex multiplex). The assay is classed as cell-based, human. The following applies: 0-40 μM, 12 hours. The text has this:
FIGS. 6A-6B. EP009 treatment disrupts constitutive JAK3/STAT3 pathway activation and down-regulates CD30 cell surface expression in human ALCL cells. (A) Kit225 (lane a), SUP-M2 (lane b), Karpas299 (lane c), DEL (lane d) and SU-DHL-1 (lane e) total cell lysates were separated by 7.5% SDS-PAGE (upper panel) or were immunoprecipitated (IP) with JAK3 antibodies (lower panel) and separated on 7.5% SDS-PAGE, and then subjected to Western blot (WB) analysis with the indicated antibodies. (B) SU-DHL-1 cells were treated with vehicle (PBS; lane a) or increasing amounts of EP009 (0-40 μM; lanes b-e) for 12 hours. Cells were then lysed, clarified, and immunoprecipitated (IP) with anti-JAK3 (α-JAK3), and subjected to Western blot (WB) analysis with anti-phosphotyrosine (α-pY). Blots were stripped and reprobed with α-JAK3 to verify equivalent protein loading. (C) SU-DHL-1 cells were treated with vehicle (PBS) or increasing amounts of EP009 (0-40 μM) for 12 hours. […] Values represent pSTAT mean fluorescence intensity (MFI) normalized to corresponding GAPDH MFI, while error bars represent the standard deviation (n=2). Statistical significance was determined using Student's t-test. […] Cells were then analyzed by flow cytometry for CD30 expression. […]

Chain of TIE2 (Q02763 23-1124): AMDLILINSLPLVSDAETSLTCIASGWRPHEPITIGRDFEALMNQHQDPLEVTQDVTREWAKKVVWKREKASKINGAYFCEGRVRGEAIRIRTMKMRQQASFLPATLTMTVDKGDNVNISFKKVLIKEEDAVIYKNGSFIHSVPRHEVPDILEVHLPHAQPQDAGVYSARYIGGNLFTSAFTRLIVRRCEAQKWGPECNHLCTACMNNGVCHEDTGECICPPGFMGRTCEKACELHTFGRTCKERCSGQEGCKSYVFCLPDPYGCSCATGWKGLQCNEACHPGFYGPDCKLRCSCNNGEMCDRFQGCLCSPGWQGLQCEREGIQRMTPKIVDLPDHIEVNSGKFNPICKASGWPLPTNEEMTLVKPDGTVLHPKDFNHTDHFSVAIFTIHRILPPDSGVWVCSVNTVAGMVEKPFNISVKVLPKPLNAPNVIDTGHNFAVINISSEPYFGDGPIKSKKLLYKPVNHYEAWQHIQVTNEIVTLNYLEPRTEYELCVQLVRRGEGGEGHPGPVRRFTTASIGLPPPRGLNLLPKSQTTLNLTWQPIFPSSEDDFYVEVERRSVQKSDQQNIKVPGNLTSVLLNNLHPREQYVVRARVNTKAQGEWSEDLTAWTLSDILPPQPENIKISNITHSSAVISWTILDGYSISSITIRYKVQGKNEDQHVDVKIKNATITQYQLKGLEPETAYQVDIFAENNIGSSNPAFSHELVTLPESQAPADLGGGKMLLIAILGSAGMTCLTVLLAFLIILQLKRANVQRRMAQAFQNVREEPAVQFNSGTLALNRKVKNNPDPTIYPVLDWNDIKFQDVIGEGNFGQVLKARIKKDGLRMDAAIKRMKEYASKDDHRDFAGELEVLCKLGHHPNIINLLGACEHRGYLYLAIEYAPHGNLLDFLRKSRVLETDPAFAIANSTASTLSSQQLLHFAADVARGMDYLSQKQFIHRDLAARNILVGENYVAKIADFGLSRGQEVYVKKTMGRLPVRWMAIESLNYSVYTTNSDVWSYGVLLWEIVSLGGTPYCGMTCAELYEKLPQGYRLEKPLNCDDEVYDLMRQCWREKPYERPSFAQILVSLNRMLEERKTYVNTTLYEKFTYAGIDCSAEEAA

Consider `C=C1CCCCCCCCCC(CO)C1=O` (centres unmarked) [EP009, 2-(Hydroxymethyl)-12-methylenecyclododecanone], for which the “Kinase Activity (% of Control)” value at TIE2 was 90 % of Control. In the assay with STAT3, the “effect on phospho-STAT3 levels” value is “dose-dependent inhibition”.
